# Measured values taken from patent publication US20240358693A1, “METHODS OF TREATING PAIN” (Aisa Pharma, Inc., priority 2023, published 2024).
# System: participants with SSc-RP
# Assay: Average duration of weekly RP attacks (minutes)
# Assay type: in vivo, human
# Conditions: Tadalafil 5 mg
# Description: The absolute change in average duration of weekly RP attacks from baseline to the end of each dosing period was and will be a secondary outcome variable. The sponsor-developed participant-informed diary was and will be used to record data. Average duration of weekly RP attacks is defined as the total duration of RP attacks divided by total number of RP attacks within the last 7 days of each dosing period. Total duration of RP attacks during the last 7 days of screening period divided by the total number of RP attacks will be used as baseline for the analysis of all periods. The variable will be calculated similar to frequency data as before.
# [1] = n=1, Excluding Outliers, ITT Part A
# [2] = Baseline RCS subgroup 2 (unnamed), ITT Part A
# [3] = Excluding Outliers, Baseline RCS subgroup 2 (unnamed), ITT Part A
# [4] = Excluding Outliers, ITT Population - Part A
# [5] = Excluding Outliers, by Baseline RCS, subgroup 2, ITT Population - Part A
# [6] = by Baseline RCS, subgroup 2, ITT Population - Part A
compound,measurement,setting,value
"CN1CC(=O)N2[C@H](c3ccc4c(c3)OCO4)c3[nH]c4ccccc4c3C[C@@H]2C1=O [Tadalafil, tadalafil]","Average Duration of Weekly Symptomatic RP Attacks, Change from Baseline, Mean",[1],-4.58 min
same,"Average Duration of Weekly Symptomatic RP Attacks, Change from Baseline, Median",[1],-4.58 min
same,"Average Duration of Weekly Symptomatic RP Attacks, Mean",[1],6.00 min
same,"Average Duration of Weekly Symptomatic RP Attacks, Median",[1],6.00 min
same,"Average Duration of Weekly Symptomatic RP Attacks, Percent Change from Baseline, Mean",[1],−43.31%
same,"Average Duration of Weekly Symptomatic RP Attacks, Percent Change from Baseline, Median",[1],−43.31%
same,"Average Duration of Weekly Symptomatic RP Attacks, Change from Baseline, Mean","n=2, ITT Part A",140.74 min
same,"Average Duration of Weekly Symptomatic RP Attacks, Change from Baseline, Median","n=2, ITT Part A",140.74 min
same,"Average Duration of Weekly Symptomatic RP Attacks, Mean","n=2, ITT Part A",412.29 min
same,"Average Duration of Weekly Symptomatic RP Attacks, Median","n=2, ITT Part A",412.29 min
same,"Average Duration of Weekly Symptomatic RP Attacks, Percent Change from Baseline, Mean","n=2, ITT Part A",5.21%
same,"Average Duration of Weekly Symptomatic RP Attacks, Percent Change from Baseline, Median","n=2, ITT Part A",5.21%
same,"Average Duration of Weekly Symptomatic RP Attacks, Change from Baseline, Mean",[2],140.74 min
same,"Average Duration of Weekly Symptomatic RP Attacks, Change from Baseline, Median",[2],140.74 min
same,"Average Duration of Weekly Symptomatic RP Attacks, Mean",[2],412.29 min
same,"Average Duration of Weekly Symptomatic RP Attacks, Median",[2],412.29 min
same,"Average Duration of Weekly Symptomatic RP Attacks, Percent Change from Baseline, Mean",[2],5.21%
same,"Average Duration of Weekly Symptomatic RP Attacks, Percent Change from Baseline, Median",[2],5.21%
same,"Average Duration of Weekly Symptomatic RP Attacks, Change from Baseline, Mean",[3],-4.58 min
same,"Average Duration of Weekly Symptomatic RP Attacks, Change from Baseline, Median",[3],-4.58 min
same,"Average Duration of Weekly Symptomatic RP Attacks, Mean",[3],6.00 min
same,"Average Duration of Weekly Symptomatic RP Attacks, Median",[3],6.00 min
same,"Average Duration of Weekly Symptomatic RP Attacks, Percent Change from Baseline, Mean",[3],−43.31%
same,"Average Duration of Weekly Symptomatic RP Attacks, Percent Change from Baseline, Median",[3],−43.31%
same,"Average Duration of Weekly RP Attacks (All Attacks) Change from Baseline, Mean",[4],-4.98 min
same,"Average Duration of Weekly RP Attacks (All Attacks) Change from Baseline, Median",[4],-4.98 min
same,"Average Duration of Weekly RP Attacks (All Attacks) Percent Change from Baseline, Mean",[4],−45.55%
same,"Average Duration of Weekly RP Attacks (All Attacks) Percent Change from Baseline, Median",[4],−45.55%
same,"Average Duration of Weekly RP Attacks (All Attacks), Mean",[4],5.95 min
same,"Average Duration of Weekly RP Attacks (All Attacks), Median",[4],5.95 min
same,"Average Duration of Weekly RP Attacks (All Attacks) Change from Baseline, Mean",[5],-4.98 min
same,"Average Duration of Weekly RP Attacks (All Attacks) Change from Baseline, Median",[5],-4.98 min
same,"Average Duration of Weekly RP Attacks (All Attacks) Percent Change from Baseline, Mean",[5],−45.55%
same,"Average Duration of Weekly RP Attacks (All Attacks) Percent Change from Baseline, Median",[5],−45.55%
same,"Average Duration of Weekly RP Attacks (All Attacks), Mean",[5],5.95 min
same,"Average Duration of Weekly RP Attacks (All Attacks), Median",[5],5.95 min
same,"Average Duration of Weekly RP Attacks (All Attacks) Change from Baseline, Mean",ITT Part A,91.80 min
same,"Average Duration of Weekly RP Attacks (All Attacks) Change from Baseline, Median",ITT Part A,91.80 min
same,"Average Duration of Weekly RP Attacks (All Attacks) Percent Change from Baseline, Mean",ITT Part A,−7.81%
same,"Average Duration of Weekly RP Attacks (All Attacks) Percent Change from Baseline, Median",ITT Part A,−7.81%
same,"Average Duration of Weekly RP Attacks (All Attacks), Mean",ITT Part A,412.26 min
same,"Average Duration of Weekly RP Attacks (All Attacks), Median",ITT Part A,412.26 min
same,"Average Duration of Weekly RP Attacks (All Attacks) Change from Baseline, Mean",[6],91.80 min
same,"Average Duration of Weekly RP Attacks (All Attacks) Change from Baseline, Median",[6],91.80 min
same,"Average Duration of Weekly RP Attacks (All Attacks) Percent Change from Baseline, Mean",[6],−7.81%
same,"Average Duration of Weekly RP Attacks (All Attacks) Percent Change from Baseline, Median",[6],−7.81%
same,"Average Duration of Weekly RP Attacks (All Attacks), Mean",[6],412.26 min
same,"Average Duration of Weekly RP Attacks (All Attacks), Median",[6],412.26 min
